Results from ChEMBL document CHEMBL4715697, “Synthesis and biological activity of benzamide DNA minor groove binders” (2016).

Tests used:
Format in all cases: functional
UACC-257 [1] = assay: Growth inhibition of human UACC-257 cells assessed as cell growth at 1 uM incubated for 48 hrs by sulforhodamine B assay relative to control; settings: read-out: Activity
U-251 = assay: Growth inhibition of human U-251 cells assessed as cell growth at 1 uM incubated for 48 hrs by sulforhodamine B assay relative to control; settings: read-out: Activity
SF-295 = assay: Growth inhibition of human SF-295 cells assessed as cell growth at 0.1 uM incubated for 48 hrs by sulforhodamine B assay relative to control; settings: read-out: Activity
OVCAR-4 = assay: Growth inhibition of human OVCAR-4 cells assessed as cell growth at 0.1 uM incubated for 48 hrs by sulforhodamine B assay relative to control; settings: read-out: Activity
EKVX = assay: Growth inhibition of human EKVX cells assessed as cell growth at 0.1 uM incubated for 48 hrs by sulforhodamine B assay relative to control; settings: read-out: Activity
UACC-257 [2] = assay: Growth inhibition of human UACC-257 cells assessed as cell growth at 0.1 uM incubated for 48 hrs by sulforhodamine B assay relative to control; settings: read-out: Activity
BT-549 = assay: Growth inhibition of human BT-549 cells assessed as cell growth at 0.1 uM incubated for 48 hrs by sulforhodamine B assay relative to control; settings: read-out: Activity
COLO 205 = assay: Growth inhibition of human COLO 205 cells assessed as cell growth at 100 uM incubated for 48 hrs by sulforhodamine B assay relative to control; settings: read-out: Activity
NCI-H522 = assay: Growth inhibition of human NCI-H522 cells incubated for 48 hrs by sulforhodamine B assay
SW-620 = assay: Growth inhibition of human SW-620 cells assessed as cell growth at 1 uM incubated for 48 hrs by sulforhodamine B assay relative to control; settings: read-out: Activity
SF-539 [3] = assay: Growth inhibition of human SF-539 cells assessed as cell growth at 0.1 uM incubated for 48 hrs by sulforhodamine B assay relative to control; settings: read-out: Activity
OVCAR-3 [4] = assay: Growth inhibition of human OVCAR-3 cells assessed as cell growth at 100 uM incubated for 48 hrs by sulforhodamine B assay relative to control; settings: read-out: Activity
NCI-H322M = assay: Growth inhibition of human NCI-H322M cells assessed as cell growth at 0.01 uM incubated for 48 hrs by sulforhodamine B assay relative to control; settings: read-out: Activity
OVCAR-3 [5] = assay: Growth inhibition of human OVCAR-3 cells incubated for 48 hrs by sulforhodamine B assay
Hs-578T = assay: Growth inhibition of human Hs-578T cells assessed as cell growth at 0.01 uM incubated for 48 hrs by sulforhodamine B assay relative to control; settings: read-out: Activity
786-0 [6] = assay: Growth inhibition of human 786-0 cells assessed as cell growth at 0.01 uM incubated for 48 hrs by sulforhodamine B assay relative to control; settings: read-out: Activity
RXF 393 = assay: Growth inhibition of human RXF 393 cells incubated for 48 hrs by sulforhodamine B assay
NCI-H460 = assay: Growth inhibition of human NCI-H460 cells incubated for 48 hrs by sulforhodamine B assay
MDA-MB-468 = assay: Growth inhibition of human MDA-MB-468 cells assessed as cell growth at 100 uM incubated for 48 hrs by sulforhodamine B assay relative to control; settings: read-out: Activity
A549 = assay: Growth inhibition of human A549/ATCC cells incubated for 48 hrs by sulforhodamine B assay
SK-OV-3 = assay: Growth inhibition of human SK-OV-3 cells assessed as cell growth at 0.01 uM incubated for 48 hrs by sulforhodamine B assay relative to control; settings: read-out: Activity
NCI-H226 [7] = assay: Growth inhibition of human NCI-H226 cells assessed as cell growth at 100 uM incubated for 48 hrs by sulforhodamine B assay relative to control; settings: read-out: Activity
MDA-MB-435 = assay: Growth inhibition of human MDA-MB-435 cells assessed as cell growth at 0.01 uM incubated for 48 hrs by sulforhodamine B assay relative to control; settings: read-out: Activity
NCI-H226 [8] = assay: Growth inhibition of human NCI-H226 cells assessed as cell growth at 0.01 uM incubated for 48 hrs by sulforhodamine B assay relative to control; settings: read-out: Activity
SF-539 [9] = assay: Growth inhibition of human SF-539 cells assessed as cell growth at 1 uM incubated for 48 hrs by sulforhodamine B assay relative to control; settings: read-out: Activity
HCC 2998 = assay: Growth inhibition of human HCC 2998 cells assessed as cell growth at 0.01 uM incubated for 48 hrs by sulforhodamine B assay relative to control; settings: read-out: Activity
HCT-15 = assay: Growth inhibition of human HCT-15 cells incubated for 48 hrs by sulforhodamine B assay
DU-145 = assay: Growth inhibition of human DU-145 cells assessed as cell growth at 100 uM incubated for 48 hrs by sulforhodamine B assay relative to control; settings: read-out: Activity
OVCAR-8 = assay: Growth inhibition of human OVCAR-8 cells assessed as cell growth at 1 uM incubated for 48 hrs by sulforhodamine B assay relative to control; settings: read-out: Activity
NCI/ADR-RES = assay: Growth inhibition of human NCI/ADR-RES cells assessed as cell growth at 1 uM incubated for 48 hrs by sulforhodamine B assay relative to control; settings: read-out: Activity
786-0 [10] = assay: Growth inhibition of human 786-0 cells assessed as cell growth at 1 uM incubated for 48 hrs by sulforhodamine B assay relative to control; settings: read-out: Activity
IGROV-1 = assay: Growth inhibition of human IGROV-1 cells assessed as cell growth at 1 uM incubated for 48 hrs by sulforhodamine B assay relative to control; settings: read-out: Activity
SR = assay: Growth inhibition of human SR cells assessed as cell growth at 0.01 uM incubated for 48 hrs by sulforhodamine B assay relative to control; settings: read-out: Activity
M14 = assay: Growth inhibition of human M14 cells assessed as cell growth at 0.01 uM incubated for 48 hrs by sulforhodamine B assay relative to control; settings: read-out: Activity
HCT-116 = assay: Growth inhibition of human HCT-116 cells assessed as cell growth at 1 uM incubated for 48 hrs by sulforhodamine B assay relative to control; settings: read-out: Activity
[11] = read-out: LC50 (the source's name)
[12] = read-out: pLC50 (the source's name) (converted)

`CC(=O)Nc1cc(CO[Si](C)(C)C(C)(C)C)cc(NC(=O)c2ccc(C(=O)Nc3cccc(NC(=O)CCCN(C)C)c3)cc2)c1` gave a growth at 1 µM (UACC-257 [1]) of 89%, a growth at 1 µM (U-251) of 91% and a growth at 0.1 µM (SF-295) of 123%. It also gave a growth at 0.1 µM (OVCAR-4) of 96%, a growth at 0.1 µM (EKVX) of 98% and a growth at 0.1 µM (UACC-257 [2]) of 90%. The growth at 0.1 µM (BT-549) was 93%, the growth at 100 µM (COLO 205) was 80% and the GI50 (NCI-H522; read-out: GI50) was greater than 75 µM. For the same compound, the CC50 (NCI-H522; [11]) was greater than 75 µM, the TGI (NCI-H522; read-out: TGI) was greater than 75 µM and the GI50 (NCI-H522; read-out: pGI50 (converted)) was greater than 75.9 µM. The CC50 (NCI-H522; [12]) was greater than 75.9 µM, the TGI (NCI-H522; read-out: pTGI) was greater than 75.9 µM and the growth at 1 µM (SW-620) was 100%. It also gave a growth at 0.1 µM (SF-539 [3]) of 98%, a growth at 100 µM (OVCAR-3 [4]) of 105% and a growth at 0.01 µM (NCI-H322M) of 102%. For the same compound, the GI50 (OVCAR-3 [5]; read-out: GI50) was greater than 75 µM, the LC50 (50% lethal concentration) (OVCAR-3 [5]; read-out: LC50) was greater than 75 µM and the TGI (OVCAR-3 [5]; read-out: TGI) was greater than 75 µM. For the same compound, the GI50 (OVCAR-3 [5]; read-out: pGI50 (converted)) was greater than 75.9 µM, the LC50 (50% lethal concentration) (OVCAR-3 [5]; read-out: pLC50 (converted)) was greater than 75.9 µM and the TGI (OVCAR-3 [5]; read-out: pTGI) was greater than 75.9 µM. For the same compound, the growth at 0.01 µM (Hs-578T) was 99%, the growth at 0.01 µM (786-0 [6]) was 97% and the GI50 (RXF 393; read-out: GI50) was greater than 75 µM. The CC50 (RXF 393; [11]) was greater than 75 µM, the TGI (RXF 393; read-out: TGI) was greater than 75 µM and the GI50 (RXF 393; read-out: pGI50 (converted)) was greater than 75.9 µM. The CC50 (RXF 393; [12]) was greater than 75.9 µM, the TGI (RXF 393; read-out: pTGI) was greater than 75.9 µM and the GI50 (NCI-H460; read-out: GI50) was greater than 75 µM. For the same compound, the CC50 (NCI-H460; [11]) was greater than 75 µM, the TGI (NCI-H460; read-out: TGI) was greater than 75 µM and the GI50 (NCI-H460; read-out: pGI50 (converted)) was greater than 75.9 µM. The CC50 (NCI-H460; [12]) was greater than 75.9 µM, the TGI (NCI-H460; read-out: pTGI) was greater than 75.9 µM and the growth at 100 µM (MDA-MB-468) was 103%. The GI50 (A549; read-out: GI50) was greater than 75 µM, the CC50 (A549; [11]) was greater than 75 µM and the TGI (A549; read-out: TGI) was greater than 75 µM. It also gave a GI50 (A549; read-out: pGI50 (converted)) greater than 75.9 µM, a CC50 (A549; [12]) greater than 75.9 µM and a TGI (A549; read-out: pTGI) greater than 75.9 µM. It also gave a growth at 0.01 µM (SK-OV-3) of 98%, a growth at 100 µM (NCI-H226 [7]) of 87% and a growth at 0.01 µM (MDA-MB-435) of 98%. The growth at 0.01 µM (NCI-H226 [8]) was 96%, the growth at 1 µM (SF-539 [9]) was 100% and the growth at 0.01 µM (HCC 2998) was 98%. It also gave a GI50 (HCT-15; read-out: GI50) greater than 75 µM, a CC50 (HCT-15; [11]) greater than 75 µM and a TGI (HCT-15; read-out: TGI) greater than 75 µM. It also gave a GI50 (HCT-15; read-out: pGI50 (converted)) greater than 75.9 µM, a CC50 (HCT-15; [12]) greater than 75.9 µM and a TGI (HCT-15; read-out: pTGI) greater than 75.9 µM. The growth at 100 µM (DU-145) was 85%, the growth at 1 µM (OVCAR-8) was 97% and the growth at 1 µM (NCI/ADR-RES) was 97%. The growth at 1 µM (786-0 [10]) was 93%, the growth at 1 µM (IGROV-1) was 81% and the growth at 0.01 µM (SR) was 106%. For the same compound, the growth at 0.01 µM (M14) was 97% and the growth at 1 µM (HCT-116) was 101%.
